How the values were obtained:
[1] = test system: T1, MAX:MXD1(MAD1); assay: GLuc MAD:MAX in COS-7 cells; type: cell-based; conditions: 12.5 µM
T1 construct: full-length MXD1(MAD1) or full-length MAX cDNA; expressed in transfected cells; host or cells: COS-7
Experimental: The protein fragment complementation assay using the Gaussia luciferase has been described. 0.2–0.4 μg of each GLuc-construct (see Supplementary Information) together with 0.05–0.2 μg pCMV-Luc (Firefly luciferase) were transiently transfected into HEK293 or COS-7 cells in 6-well plates. 24 hours later cells were treated with compound (10–25 μM) or DMSO. After another 17 hours, the cells were harvested and lyzed in passive lysis buffer (Promega) supplemented with complete protease inhibitor (Roche). After 60 min incubation at room temperature 20 μM D-luciferin was added (substrate of Firefly luciferase) and luminescence was measured in a Lumat LB9501 (Berthold) or OmegaFluostar (BMG Labtech) luminometer. Directly after, Gaussia luciferase substrate Coelenterazine (Promega) was added to a final concentration of 20 μM in a mixture with “Stop n’ Glow” (Promega) and the luciferase activity was measured. The ratio between Gaussia and Firefly luciferase values were calculated and normalized to DMSO-treated control cells.
Supplementary Figure Legends
Supplemental Figure S1. Schematic presentations of MYC and MAX protein constructs. A) BiFC constructs MYC-YFP-N and MAX-YFP-C, containing full-length MYC and MAX fused with N-terminal and C-terminal fragments of yellow fluorescent protein (YFP), respectively 3.
In the MYC deletion mutant MYCΔbHLHZip-YFP-N, the bHLHZip domain, residues 352-432, has been truncated 3. B) Gaussia princeps Luciferase (GLuc) constructs MYC-GLuc-C and MAX-GLuc-N, containing full-length MYC and MAX fused with N-terminal and C-terminal fragments of GLuc, respectively. MYC was truncated at residue 411-432 in order to produce the deletion mutant MYCΔZ ip-GLuc-C. […]
Supplemental Figure S2. […] The cells were reseeded and treated with vehicle or 25 µM of each compound, after which fluorescence was measured 24 hours post-treatment and the YFP/CFP ratio calculated and normalized to DMSO-treated cells.
B) MAD:MAX GLuc assay. MAD-GLuc-C and MAX-GLuc-N constructs were cotransfected into COS-7 cells together with CMV-Luc and treated with MYCMIs (12.5 µM) and analyzed […]

[2] = test system: T2, BCL-XL; assay: SPR binding to BCL-XL
T2 construct: purchased Abcam
Experimental: The MYC SPR assay was carried out as described above with MYCbHLHZip immobilized to a level of 800–1000 RU. For kinetic binding experiments, a Langmuir 1:1 binding event was applied using the Biacore T200 Evaluation Software 2.0 (GE Healthcare) to determine association (ka) and dissociation (kd) constants of the compound and to calculate affinity (KD) by the formula; KD = kd/ka. Binding responses from equilibrium binding experiments were plotted against compound concentration and KD values were determined at 50% of the theoretical Rmax with the formula Rmax = (MW analyte/MW ligand) × immobilized ligand level on the chip (RU) × stoichiometry (1:1). Same coupling method described above was used to immobilize the control proteins. MAX was immobilized to approximately 2000 RU, MAD to 600 RU, BSA to 1000 RU, p53 to 3000 RU and BCL-XL, to 500 RU.

[3] = test system: MYCN-amplified neuroblastoma cells (IMR-32, Kelly, SK-N-DZ); assay: Resazurin growth assay, MYCN-amplified neuroblastoma cell lines; type: cell-based, human; conditions: 48 hours; for growth of MYCN-amplified versus MYCN-non-amplified neuroblastoma cell lines: MYCMI-6 6.25 μM, MYCMI-11 and MYCMI-14 25 μM, 10058-F4 64 μM
Excerpt: HEK293A, MCF7, MDA-MB231, SK-N-F1, SK-N-RA, SK-N-AS, COS-7, HeLa, BJ cells, and Rat1 fibroblasts TGR-1 (wt), HO15.19 (MYC knockout) and HOmyc3 (MYC reconstituted HO15.19) were maintained in DMEM. The neuroblastoma cell lines Kelly, IMR-32 and SK-N-DZ, and the Burkitt’s lymphoma cell lines Mutu, Daudi and ST486 were kept in RPMI. SK-N-BE(2) cells were maintained in a 1:1 mixture of EMEM and F12 media, supplemented with 1% non-essential amino acid solution (NEAA) and 0.5% Glutamine. U2OS-MYC-ER cell lines were cultured in phenol-red free DMEM and treated with 100 nM 4-hydroxytamoxifen (HOT) (Sigma-Aldrich) to activate MYC-ER. IMR-90 was maintained in MEM. All media were supplemented with 10% FBS and 1% penicillin and streptomycin and kept at 37 °C and 5% CO2. All cell lines were mycoplasma free. Cell proliferation assays were performed as described in Supplementary Information. […]
Cell proliferation assays. Cell growth and viability was estimated in triplicates with WST-1
(Roche) or Resazurin sodium salt (Sigma-Aldrich) assays in medium at 37°C and 5% CO 2 for
2 hours after which absorbance or fluorescence, respectively, was measured with an Omega
Fluostar (BMG Labtech) in a 96 well plate format. […]

[4] = test system: SK-N-DZ MYCN-amplified neuroblastoma xenograft tumors; assay: SK-N-DZ neuroblastoma xenograft tumor model; type: in vivo, mouse; conditions: 20 mg/kg i.p. daily, 1–2 weeks, vs vehicle
Experimental: The last dose was administered 3 hrs before termination. […]
Immunohistochemistry. Apoptosis was visualized at the single-cell level on tumor cryosections using the TUNEL method using the In Situ Cell Death Detection Fluorescein-Roche kit and analyzed by fluorescence microscopy. Briefly, tumor cryosections were fixed in 4% paraformaldyde (PFA) and the assay was performed following the instructions from the manufacturer. Negative controls were run using the reagent without the TdT enzyme. Samples were mounted using Vectashield mounting medium (Vector) and DAPI was used as nuclear counterstaining. Cell proliferation and microvascular density (MVD) were evaluated through Ki67 and CD31staining, respectively, on tumor cryosections and detected by immunofluoresence. Visualization and image acquisition was done in a Zeiss microscope, and for panoramic views by a Vectra imaging system. For quantification, areas with positive TUNEL and Ki67 staining were measured using Image J software. For the analysis of MVD, the number of vessel structures per microscopic field was calculated.

| SMILES | effect on MAX:MXD1(MAD1) interaction (GLuc) [1] | fold lower affinity for BCL-XL than for MYC [2] [fold] | binding to BCL-XL, % of the theoretical maximum (SPR) ([2]; 2 μM MYCMI-6) [%] | GI50 ([3]; Homo sapiens, Neuroblastoma cell, resazurin) [µM] | growth of MYCN-amplified versus MYCN-non-amplified neuroblastoma cell lines [3] | apoptotic areas in tumors (TUNEL) [4] | microvascular density (CD31) [4] | non-proliferative areas (Ki67) [4] | tumor histology (H&E) [4] |
| --- | --- | --- | --- | --- | --- | --- | --- | --- | --- |
| CCOc1ccc2nc3cc(/N=N/c4ccc(N)nc4N)ccc3c(N)c2c1 [MYCMI-6] | did not significantly affect | ≥ 5 | 10 | 2.5 to 6 | reduced growth of the MYCN-amplified cell lines significantly stronger than the MYCN-non-amplified cell lines | dramatic increase | significantly reduced | significant increase | signs of necrosis and hemorrhage |
| CCCCN(c1ccccc1)c1ncnc2c1cnn2C [MYCMI-11] | did not significantly affect | – | – | – | reduced growth of the MYCN-amplified cell lines significantly stronger than the MYCN-non-amplified cell lines | – | – | – | – |
| O=C(O)/C=C/C(=O)Nc1cccc2c1-c1ccccc1C2=O [MYCMI-14] | did not significantly affect | – | – | – | reduced growth of the MYCN-amplified cell lines significantly stronger than the MYCN-non-amplified cell lines | – | – | – | – |
